The record followed here is patent US20230340419A1, “METHODS FOR GENERATION OF MOUSE AND HUMAN URETERIC BUD ORGANOIDS AND COLLECTING DUCT ORGANOIDS” (University of Southern California, priority 2020, published 2023).

What all share (type): cell-based, mouse
The subject of data set [1] is Wnt11-RFP UB organoid. Nature of the data set: Stage III 1st round screening of growth factors and small molecules for UB organoid culture condition. The settings on record: for Wnt11-RFP / Organoid growth: reagent added to FGF9 + C3 + TTNPB + GDNF, compared to that control group; for Effect when used individually: individual versus combinatorial use of JAKI and SB202190. The text has this: We employed this Wnt11-RFP reporter system as a readout to screen for a culture condition that maintained the progenitor identity of UPCs in vitro. T-shaped UBs were manually isolated from E11.5 kidneys of Wnt11-RFP mice, and immediately embedded into Matrigel to set up a 3D culture platform that supported epithelial branching. In this 3D culture format, built on previous efforts towards the ex vivo culture of UB, hundreds of different combinations of growth factors and small molecules were tested (see also the Materials and Techniques section below for details under subheading “Screening for optimal UB culture condition”).
We systematically screened the optimal UB culture condition in four different stages (Stages I-IV).
In Stage III, based on the optimized recipe consisting of FGF9, TTNPB, CHIR99021 (3 μM) and GDNF, we preformed our 1st round of screening of growth factors and small molecules targeting major developmental pathways (e.g. TGF-β, BMP, Wnt, FGF, Hedgehog and Notch) and others. The branching morphogenesis, growth rate and Wnt11-RFP were recorded as readouts (Table 1). […] Representative images were taken at least for LDN193189, A83-01, and R-Spondin 1. These individual hits were then subjected to a 2nd round of screening to test their effects in various combinations, eventually leading to the identification of the optimal UB progenitor culture medium UBCM consisting of FGF9, TTNPB, CHIR99021 (3 μM), GDNF, LDN193189, A83-01, R-Spondin1, JAKI and SB202190.

The subject of data set [2] is UB organoids. The data set can be described thus: 2nd round of CD differentiation condition screening (qRT-PCR of Aqp2 and Foxi1). The note with it: for Foxi1 expression / Aqp2 expression: qRT-PCR, 7 days, under hBI+FGF9+Y27632 condition. Here is the method:
The functions of the mature renal CD system are carried out by two major cell populations that are intermingled throughout the entire CD network. The more abundant principal cells (PCs) concentrate the urine and regulate Na^+/K^+ homeostasis via water and Na^+/K^+ transporters. The less abundant α- and β-intercalated cells (ICs) regulate normal acid-base homeostasis via secretion of H^+ or HCO3^− into the urine. The absence of an in vitro system recapitulating PC and IC development in an appropriate 3D context, constrains physiological exploration, disease modeling and drug screening on the renal CD system. With this limitation in mind, we developed a screen to establish conditions supporting the differentiation of CD organoids, assaying expression of Aqp2 and Foxi1, definitive markers for PC and IC lineages, respectively, by quantitative reverse transcription PCR (qRT-PCR), following 7 days of culture under variable but defined culture conditions (FIG. 2A).
Agonists or antagonists targeting major developmental pathways (e.g. TGF-β, BMP, Wnt, FGF, Hedgehog and Notch) were tested, together with hormonal inputs known to regulate PC or IC activity (aldosterone and vasopressin).

Data set [3] concerns Wnt11-RFP UB organoid. The data set can be described thus: Withdrawal of individual components from UBCM (Stage IV validation). The settings on record: component withdrawn from UBCM. From the text: To determine whether UBCM culture conditions enabled clonal growth from a single UPC, dissociated E11.5 UBs were embedded at clonal density in Matrigel and cultured in UBCM medium. Around 30% of the single cells self-organized into E11.5 UB-like budding structures within 5 days, though a smaller percentage (3-5%) maintained Wnt11-RFP (FIG. 1G), an efficiency similar to clonal organoid formation for Lgr5^+ intestinal stem cells. Importantly, the clonally-derived Wnt11-RFP^+ budding structures were identical to intact E11.5 UB-derived organoids in both branching morphology and growth rate (Table 3, FIG. 1H).
Lastly, in Stage IV, we asked whether each of the components in UBCM was essential.

Data set [4] has as its system Wnt11-RFP UB. Nature of the data set: Stage II optimisation of individual UB medium components. The settings on record: titrated at 1, 3 and 6 μM. The text has this: In Stage II, we optimized the individual medium components employed by Yuri et al. (FGF1, RA, CHIR99021, and GDNF). We first asked if each individual factor was necessary in the medium. […] Then we further optimized these factors. RA is known to be unstable in tissue culture, so we replaced it with another widely used small molecule RA substitute TTNPB. CHIR99021 was used at 1p M by Yuri et al., but based on our own experiences and literature, different doses of CHIR99021 often have different biological effects. So we titrated it from 1p M, 3p M, to 6 μM, from which we identified 3 μM to be the optimal concentration. […] GDNF was unchanged in the medium, considering its essential role in maintaining the UB progenitor population in vitro and in vivo.

Turning to `Cc1cccc(-c2nn(C(=S)Nc3ccccc3)cc2-c2ccnc3ccccc23)n1` [A83-01], the Wnt11-RFP result in data set [1] is on record as “Better”.
On the same count and under the same terms, in the case of `NC(=O)c1ncn([C@@H]2O[C@H](CO)[C@@H](O)[C@H]2O)c1N` [AICAR] it was “Slighty Better”.
Take `C[C@]12CCC(=O)C=C1CC[C@@H]1[C@@H]2[C@@H](O)C[C@]2(C=O)[C@@H](C(=O)CO)CC[C@@H]12` [Aldosterone]: the Foxi1 expression entry in data set [2] was “preferential increase”.
In the case of `Cc1c[nH]c(-c2cnc(NCCNc3ccc(C#N)cn3)nc2-c2ccc(Cl)cc2Cl)n1` [CHIR99021], in data set [3], the “Effect of withdrawal of the component from UBCM on organoid growth” value is on record as “growth arrest”. This molecule also yielded an Optimal concentration in data set [4] of 3 µM.
Regarding `C[C@H](NC(=O)Cc1cc(F)cc(F)c1)C(=O)N[C@H](C(=O)OC(C)(C)C)c1ccccc1` [DAPT], in data set [2], the Aqp2 expression entry is recorded as “dramatically increased” and the Foxi1 expression result is reported as “dramatically increased”. In addition, the Wnt11-RFP entry in data set [1] is “Better”.
Regarding `CC(C)(C)c1nc2c3cc[nH]c(=O)c3c3cc(F)ccc3c2[nH]1` [JAKI], in data set [2], the Aqp2 expression entry is recorded as “dramatically increased” and the Foxi1 expression result is “dramatically increased”. Besides, in data set [1], the “Effect when used individually” value is “only marginal effects” and the Wnt11-RFP entry is listed as “Slightly Better”.
In the case of `c1ccc2c(-c3cnn4cc(-c5ccc(N6CCNCC6)cc5)cnc34)ccnc2c1` [LDN193189], the Wnt11-RFP result in data set [1] is “Better”.
Still for that read-out and setting: in the case of `CN(C)C(=N)NC(=N)N` [Melformin] it was “Slightly Better”.
As for `O=C(NOC[C@H](O)CO)c1ccc(F)c(F)c1Nc1ccc(I)cc1F` [PD0325901], in data set [2], the Aqp2 expression result is “dramatically increased” and the Foxi1 expression entry was “dramatically increased”. In data set [1], the Organoid growth result is “No growth” and the Wnt11-RFP result is recorded as “Dead at D 6”.
As to `Oc1ccc(-c2nc(-c3ccncc3)c(-c3ccc(F)cc3)[nH]2)cc1` [S6202190], in data set [1], the “Effect when used individually” value was “only marginal effects” and the Wnt11-RFP entry is given as “Slightly Better”.
Turning to `NC(=O)CC[C@@H]1NC(=O)[C@H](Cc2ccccc2)NC(=O)[C@H](Cc2ccc(O)cc2)NC(=O)[C@@H](N)CSSC[C@@H](C(=O)N2CCC[C@H]2C(=O)N[C@@H](CCCN=C(N)N)C(=O)NCC(N)=O)NC(=O)[C@H](CC(N)=O)NC1=O` [Vasopressin], the Aqp2 expression result in data set [2] is recorded as “enhanced”.
For the molecule `CN1C(=O)c2sccc2N(C)c2nc(Nc3ccc(S(N)(=O)=O)cc3)ncc21` [XMU-MP-1], the Organoid growth entry in data set [1] is given as “No growth”.
Consider “Activin A: growth factor tested in screening”, for which the Note entry in data set [2] was “Dramatic”. Moreover, in data set [1], the Organoid growth result was “Slower” and the Wnt11-RFP result is “Worse”.
On to “EGF: epidermal growth factor (NSDSECPLSHDGYCLHDGVCMYIEALDKYACNCVVGYIGERCQYRDLKWWELR; Epidermal growth factor; UniProt P01133 971-1023, looked up)”, for which, in data set [1], the Wnt11-RFP result is “Better”.
As to FGF2: member of the FGF family, the Wnt11-RFP entry in data set [1] was “Worse”.
Still for that read-out and setting: the result for FGF20: member of the FGF family reads “Worse”; that for Heparin, “Slightly Better”.
In the case of SCF: growth factor tested in screening, in data set [1], the Organoid growth result is “Slightly better” and the Wnt11-RFP entry is on record as “Better”.
Verteporfin: the Organoid growth entry in data set [1] was “Dead”.
